Source: patent publication US20220087969A1, “METHOD FOR TREATING ASTHMA” (Olatec Therapeutics LLC, priority 2019, published 2022)

What was measured:
[1] = system: OVA-induced allergic airway inflammation; assay: Inflammatory cell infiltrate in lung tissue (HE sections, CAST), OVA model, i.p. dapansutrile; format: in vivo, C57BL/6j mice; details: 60 mg/kg i.p.; treated vs asthmatic mice; p<0.01
Method: C57BL/6j mice were sensitized to OVA (ovalbumin) by three intraperitoneal (i.p.) injections of 10 μg OVA adsorbed to 150 mg aluminum hydroxide on days 1, 14, and 21. This sensitization results in an adoptive immune response against OVA with OVA-specific TH2 cells and the production of OVA-specific antibodies of the subclasses IgE and […]. To induce acute allergic airway inflammation, mice were exposed three times to an OVA aerosol (1% w/v in PBS) on days 26, 27, and 28. Healthy control animals (healthy group) were sham sensitized to PBS and subsequently challenged with PBS aerosol. […] The following readouts were measured according to Lunding, 2015b. • General infiltration of inflammatory cells into the broncheoalveolar lumen • Determination of the specific infiltration of eosinophils, neutrophils and lymphocytes by histologic differentiation of the bronchoalveolar lavage (BAL) cells. • Goblet cell hyperplasia by CAST system (Computer Assisted Stereological Toolbox), including making microscopic pictures of the airways. • Airway resistance in response to methacholine to determine the airway hyperresponsiveness. Specifically, inflammatory cell subpopulations (eosinophils, macrophages, neutrophils, lymphocytes) infiltrating the bronchoalveolar lumen were quantified using cyto-spinned and quick-diff-stained cells from bronchoalveolar lavage fluids (BALF). […]

[2] = system: OVA-induced allergic airway inflammation; assay: Inflammatory cell infiltrate in lung tissue, OVA model, oral dapansutrile in food; format: in vivo; details: 7.5 g/kg in food, treated vs asthmatic mice, p<0.05
Method: The experimental protocols of the mouse model were the same as those described in Example 1, except dapansutrile was administered orally by food. The already-sensitized mice were fed ad libidum with food pellets containing 7.5 g/kg dapansutrile starting on day 22 for one week; the first aerosol challenge was on day 26. Mice typically consume about 4 g of food per day, resulting in an approximate daily dose of 0 mg/kg/day for control groups and 1,000 mg/kg/day for the treatment groups. […] OVA-sensitized, OVA-challenged asthmatic controls (asthmatic) were fed with control food pellets without dapansutrile. […] The label on the y-axis reads “volume of inflammatory cell infiltrate per basal membrane area (μm^3/μm^2)”. The inflammatory cells were counted within a specific distance around the airways using a microscope with the computer assisted stereological toolbox (CAST) system. These counts were set in ratio to the basal membrane to normalize within each microscopic slide to avoid slide-dependent differences.

[3] = system: OVA-induced allergic airway inflammation; assay: Leukocyte subpopulations in BALF, OVA model, oral dapansutrile in food; format: in vivo, mice
Method: The experimental protocols of the mouse model were the same as those described in Example 1, except dapansutrile was administered orally by food. The already-sensitized mice were fed ad libidum with food pellets containing 7.5 g/kg dapansutrile starting on day 22 for one week; the first aerosol challenge was on day 26. Mice typically consume about 4 g of food per day, resulting in an approximate daily dose of 0 mg/kg/day for control groups and 1,000 mg/kg/day for the treatment groups. […] OVA-sensitized, OVA-challenged asthmatic controls (asthmatic) were fed with control food pellets without dapansutrile.

[4] = humans, oral 1000 mg/day; Marchetti 2018b; cited from earlier work
[5] = system: IFN-γ, TNFα, IL-1β, IL-4, IL-5, IL-6, IL-10, IL-13, and IL17A; assay: Cytometric bead array of cytokines in BALF of Example 1; format: in vivo, C57BL/6j mice; details: 60 mg/kg i.p., treated vs asthmatic mice
Excerpt: Cytometric bead arrays were used as a method to assess the concentration of cytokines of IFN-γ, TNFα, IL-1β, IL-4, IL-5, IL-6, IL-10, IL-13, and IL17A) in the BALF of Example 1. The beads in this array were coated with antibodies specific against a variety of cytokines, some relevant and known to be affected by NLRP3 signaling.

[6] = oral, 7.5 g/kg in food, vs asthmatic mice, p<0.05

## CS(=O)(=O)CCC#N [dapansutrile, 3-methanesulfonylpropionitrile]
[1]
  number of inflammatory cells in lung tissue (volume of inflammatory cell infiltrate per basal membrane area): significantly lower
[2]
  number of inflammatory cells in lung tissue (volume of inflammatory cell infiltrate per basal membrane area): significantly lower
[3]; oral, 7.5 g/kg in food from day 22 for one week, vs asthmatic mice, p<0.0001
  reduction in eosinophils in BALF: ~75%
[3]; oral, 7.5 g/kg in food, vs asthmatic mice
  macrophage numbers in BALF: no significant reduction
[3]; [6]
  reduction in lymphocytes in BALF: ~75%
  reduction in neutrophils in BALF: ~75%
[3]; treated mice, oral 7.5 g/kg in food, asthmatic 1.00×10^4
  lymphocytes in BALF: 0.26×10^4 cells/ml
[3]; treated mice, oral 7.5 g/kg in food, asthmatic 1.74×10^4
  neutrophils in BALF: 0.43×10^4 cells/ml
[3]; treated mice, oral 7.5 g/kg in food, asthmatic 15.93×10^4
  eosinophils in BALF: 3.77×10^4 cells/ml
[4]
  blood level: 40 µg/mL
[5]
  concentrations of all measured cytokines in BALF: some reduction
[5]; p<0.001
  IL-1β concentration in BALF: statistically significant reduction
[5]; p<0.05
  IL-6 concentration in BALF: statistically significant reduction
